Assay results taken from article PMC10569036.

Assays:
[1] = shake flask on a mixture of 185; loss from the water phase only; LC-Orbitrap peak areas; settings: room
[2] = shake flask on a mixture of 185; loss from the water phase only; LC-QTOF peak areas; settings: room

| log partition 1-octanol / HPLC water, unbuffered, traces of methanol / DMSO [1] [log10] | log partition butyl acetate / HPLC water, unbuffered, traces of methanol / DMSO [1] [log10] | log partition chloroform / HPLC water, unbuffered, traces of methanol / DMSO [1] [log10] | log partition dichloromethane / HPLC water, unbuffered, traces of methanol / DMSO [1] [log10] | log partition oleylalcohol / HPLC water, unbuffered, traces of methanol / DMSO [1] [log10] | log partition toluene / HPLC water, unbuffered, traces of methanol / DMSO [1] [log10] | log partition cyclohexane / HPLC water, unbuffered, traces of methanol / DMSO [1] [log10] | log partition n-hexane / HPLC water, unbuffered, traces of methanol / DMSO [1] [log10] | log partition n-octane / HPLC water, unbuffered, traces of methanol / DMSO [1] [log10] | log partition n-undecane / HPLC water, unbuffered, traces of methanol / DMSO [1] [log10] | Compound | log partition 1-octanol / HPLC water, unbuffered, traces of methanol / DMSO [2] [log10] | log partition butyl acetate / HPLC water, unbuffered, traces of methanol / DMSO [2] [log10] | log partition chloroform / HPLC water, unbuffered, traces of methanol / DMSO [2] [log10] | log partition dichloromethane / HPLC water, unbuffered, traces of methanol / DMSO [2] [log10] | log partition oleylalcohol / HPLC water, unbuffered, traces of methanol / DMSO [2] [log10] | log partition toluene / HPLC water, unbuffered, traces of methanol / DMSO [2] [log10] | log partition cyclohexane / HPLC water, unbuffered, traces of methanol / DMSO [2] [log10] | log partition n-hexane / HPLC water, unbuffered, traces of methanol / DMSO [2] [log10] | log partition n-octane / HPLC water, unbuffered, traces of methanol / DMSO [2] [log10] | log partition n-undecane / HPLC water, unbuffered, traces of methanol / DMSO [2] [log10] |
| --- | --- | --- | --- | --- | --- | --- | --- | --- | --- | --- | --- | --- | --- | --- | --- | --- | --- | --- | --- | --- |
| 1.814 | 2.093 | 1.499 | 1.694 | 1.762 | 0.9569 | 0.0278 | -0.1668 | -0.1168 | -1.167 | c1ccc2[nH]c(-c3cscn3)nc2c1 | 0.8781 | 0.7498 | 0.5738 | 0.733 | 0.7334 | 0.2898 | -1.051 | -0.9485 | -1.018 | -1.324 |
| 3.526 | 2.502 | 1.196 | 1.153 | 2.478 | -0.2525 | -1.221 | -1.633 | -1.139 | -1.372 | CCOc1ccc2[nH]cc(C(=O)NCc3ccccc3)c(=O)c2n1 | 2.233 | 1.386 | 2.411 | 1.249 | 2.032 | -0.4984 | -1.713 | -1.238 | -1.123 | -1.345 |
| 3.061 | 2.459 | 1.134 | 1.68 | 1.908 | 1.832 | 1.413 | 1.053 | 1.336 | 1.233 | CO/N=C(/C1=NOCCO1)c1ccccc1Oc1ncnc(Oc2ccccc2Cl)c1F | 2.317 | 2.442 | 2.253 | 2.488 | 2.253 | 2.389 | 1.674 | 1.734 | 1.431 | 1.557 |
| 0.07926 | -0.1005 | 0.05708 | -0.08543 | -0.02549 | -0.1964 |  |  |  |  | CCNC(=O)C1CC(C)CCC1C(C)C (stereo not drawn) | 1.736 | 1.72 | 1.704 | 1.778 | 1.811 | 1.717 |  |  |  |  |

Continued, compound first:

| Compound | log partition 1-octanol / HPLC water, unbuffered, traces of methanol / DMSO [1] [log10] | log partition butyl acetate / HPLC water, unbuffered, traces of methanol / DMSO [1] [log10] | log partition chloroform / HPLC water, unbuffered, traces of methanol / DMSO [1] [log10] | log partition dichloromethane / HPLC water, unbuffered, traces of methanol / DMSO [1] [log10] | log partition oleylalcohol / HPLC water, unbuffered, traces of methanol / DMSO [1] [log10] | log partition toluene / HPLC water, unbuffered, traces of methanol / DMSO [1] [log10] | log partition cyclohexane / HPLC water, unbuffered, traces of methanol / DMSO [1] [log10] | log partition n-hexane / HPLC water, unbuffered, traces of methanol / DMSO [1] [log10] | log partition n-octane / HPLC water, unbuffered, traces of methanol / DMSO [1] [log10] | log partition n-undecane / HPLC water, unbuffered, traces of methanol / DMSO [1] [log10] | log partition 1-octanol / HPLC water, unbuffered, traces of methanol / DMSO [2] [log10] | log partition butyl acetate / HPLC water, unbuffered, traces of methanol / DMSO [2] [log10] | log partition chloroform / HPLC water, unbuffered, traces of methanol / DMSO [2] [log10] | log partition dichloromethane / HPLC water, unbuffered, traces of methanol / DMSO [2] [log10] | log partition oleylalcohol / HPLC water, unbuffered, traces of methanol / DMSO [2] [log10] | log partition toluene / HPLC water, unbuffered, traces of methanol / DMSO [2] [log10] | log partition cyclohexane / HPLC water, unbuffered, traces of methanol / DMSO [2] [log10] | log partition n-hexane / HPLC water, unbuffered, traces of methanol / DMSO [2] [log10] | log partition n-octane / HPLC water, unbuffered, traces of methanol / DMSO [2] [log10] | log partition n-undecane / HPLC water, unbuffered, traces of methanol / DMSO [2] [log10] |
| --- | --- | --- | --- | --- | --- | --- | --- | --- | --- | --- | --- | --- | --- | --- | --- | --- | --- | --- | --- | --- |
| COC(=O)C(C)N(C(=O)c1ccco1)c1c(C)cccc1C (stereo not drawn) | 1.653 | 2.039 | 1.758 | 1.796 | 1.315 | 1.918 |  |  |  |  | 2.113 | 2.322 | 2.434 | 2.829 | 2.215 | 2.516 |  |  |  |  |
| CCc1nn(C)c(C(=O)NCc2ccc(C(C)(C)C)cc2)c1Cl | 1.459 | 1.634 | 0.2173 | 3.08 | 1.51 | 1.132 | 0.942 | 0.5625 | 1.395 | 0.9075 | 0.9057 | 1.589 | 1.982 | 2.036 | 0.96 | 1.518 | 2.337 | 2.449 | 2.089 | 1.893 |
| O=C(Nc1ccccc1-c1ccc(Cl)cc1)c1cccnc1Cl | 3.752 | 4.674 | 1.201 | 2.846 | 3.336 | 3.533 | 2.491 | 1.664 | 1.841 | 2.234 | 2.544 | 2.85 | 2.789 | 2.321 | 1.78 | 2.524 | 1.857 | 1.024 | 1.335 | 1.129 |
| CCCCNS(=O)(=O)c1ccc(C)cc1 | 1.509 | 1.21 | 1.689 | 1.83 | 0.9177 | 1.122 | 0.5819 | 0.2985 | 0.4632 | 0.151 | 1.761 | 1.471 | 1.664 | 1.556 | 1.505 | 1.679 | 0.988 | 0.6036 | 0.3273 | 0.4324 |
